The test system of assay [1] is Staphylococcus aureus. The assay is described as follows: Antibacterial activity against Staphylococcus aureus MTCC 96 assessed as growth inhibition after 24 hrs by broth dilution assay. To be noted: MTCC 96, 24 h. Type of assay: functional.
Assay [2] deals with Aspergillus niger. The assay is described as follows: Antifungal activity against Aspergillus niger assessed as growth inhibition after 48 hrs by broth dilution assay. It counts as functional. For orientation: In broth dilution the organism is exposed to a series of concentrations in liquid medium.
For assay [3], the system named is Pseudomonas aeruginosa. In words: Antibacterial activity against Pseudomonas aeruginosa MTCC 1688 assessed as growth inhibition after 24 hrs by broth dilution assay. Type of assay: functional. To be noted: MTCC 1688, 24 h.
In assay [4] the test system is Aspergillus clavatus. In words: Antifungal activity against Aspergillus clavatus assessed as growth inhibition after 48 hrs by broth dilution assay. Type of assay: functional.
Assay [5] deals with Candida albicans. In words: Antifungal activity against Candida albicans assessed as growth inhibition after 48 hrs by broth dilution assay. Type of assay: functional.
The test system of assay [6] is Streptococcus pyogenes. The assay is described as follows: Antibacterial activity against Streptococcus pyogenes MTCC 442 assessed as growth inhibition after 24 hrs by broth dilution assay. Type of assay: functional. To be noted: MTCC 442, 24 h.
The subject of assay [7] is HeLa. In words: Cytotoxicity against human HeLa cells assessed as growth inhibition after 24 to 72 hrs by MTT assay. Type of assay: cell-based. (In general: Formazan colour is commonly taken as a measure of viable cells.)
Assay [8] has as its system Escherichia coli. The assay is described as follows: Antibacterial activity against Escherichia coli MTCC 443 assessed as growth inhibition after 24 hrs by broth dilution assay. Type of assay: functional. The following applies: MTCC 443, 24 h.

Molecules are shown by their SMILES. In brackets after ≈: the same amount, converted by molar mass. Where only a bound is given, the exact number is not on record here.

Regarding `N#Cc1c(-c2cccc([N+](=O)[O-])c2)cc(-c2nc3ccccc3[nH]2)nc1N`, the minimal inhibitory concentration (MIC) in assay [1], in assay [2], in assay [3], in assay [4], in assay [5] and in assay [6] was no less than 1000 µg/mL throughout.
Consider `N#Cc1c(-c2cccc(Cl)c2)cc(-c2nc3ccccc3[nH]2)nc1N`, for which the minimum inhibitory concentration (MIC) in assay [1], in assay [2], in assay [3], in assay [4], in assay [5] and in assay [6] was no less than 1000 µg/mL throughout.
For the molecule `N#Cc1c(-c2ccc([N+](=O)[O-])cc2)cc(-c2nc3ccccc3[nH]2)nc1N1C(=O)C(Cl)C1c1ccccc1` (stereo unspecified), the minimum inhibitory concentration (MIC) (in general, the smallest concentration in the dilution series that meets the test's criterion for growth inhibition) came to 12.5 µg/mL (≈ 24 µM) in assay [1]; 100 µg/mL (≈ 192 µM) in assay [2]; 12.5 µg/mL (≈ 24 µM) in assay [3]; 100 µg/mL (≈ 192 µM) in assay [4]; 25 µg/mL (≈ 48 µM) in assay [8]; 100 µg/mL (≈ 192 µM) in assay [5]. The MIC in assay [6] was 25 µg/mL (≈ 48 µM). In assay [7], the concentration for half-maximal inhibition (IC50) – broadly, the midpoint of a concentration-inhibition curve – is greater than 100 µM.
Turning to `N#Cc1c(-c2ccccc2O)cc(-c2nc3ccccc3[nH]2)nc1N1C(=O)C(Cl)C1c1ccccc1` (stereo unspecified), the minimum inhibitory concentration (MIC) in assay [1], in assay [2], in assay [3], in assay [4], in assay [8] and in assay [5] was 500 µg/mL (≈ 1020 µM) throughout. Also, the minimal inhibitory concentration (MIC) in assay [6] was 500 µg/mL (≈ 1020 µM). In assay [7], the IC50 is 78 µM.
As to `O=C(N[C@H](CO)[C@H](O)c1ccc([N+](=O)[O-])cc1)C(Cl)Cl` [CHLORAMPHENICOL], the MIC in assay [1], in assay [3], in assay [8] and in assay [6] was 50 µg/mL (≈ 155 µM) in each case.
With `CC(=O)N1CCN(c2ccc(OCC3COC(Cn4ccnc4)(c4ccc(Cl)cc4Cl)O3)cc2)CC1` (stereo unspecified) [KETOCONAZOLE], the MIC in assay [2], in assay [4] and in assay [5] was 50 µg/mL (≈ 94.1 µM) in each case.
As to `N#Cc1c(-c2cccc([N+](=O)[O-])c2)cc(-c2nc3ccccc3[nH]2)nc1N1C(=O)C(Cl)C1c1ccccc1` (stereo unspecified), the MIC in assay [1] came to 25 µg/mL (≈ 48 µM); in assay [2], 50 µg/mL (≈ 96 µM); in assay [3], 50 µg/mL (≈ 96 µM); in assay [4], 50 µg/mL (≈ 96 µM); in assay [8] it was 50 µg/mL (≈ 96 µM); in assay [5], 50 µg/mL (≈ 96 µM). Moreover, in assay [6], the MIC is 50 µg/mL (≈ 96 µM). The half-maximal inhibitory concentration (IC50) in assay [7] was greater than 100 µM.
Consider `N#Cc1c(-c2ccc([N+](=O)[O-])cc2)cc(-c2nc3ccccc3[nH]2)nc1N`, for which the MIC in assay [1], in assay [3] and in assay [6] was no less than 1000 µg/mL throughout.
As for `Cc1cccc(-c2cc(-c3nc4ccccc4[nH]3)nc(N3C(=O)C(Cl)C3c3ccccc3)c2C#N)c1` (stereo unspecified), the minimal inhibitory concentration (MIC) in assay [1] worked out at 250 µg/mL (≈ 510 µM); in assay [2] it was 250 µg/mL (≈ 510 µM); in assay [3], 500 µg/mL (≈ 1020 µM); in assay [4], 500 µg/mL (≈ 1020 µM); in assay [8] it was 500 µg/mL (≈ 1020 µM); in assay [5], 500 µg/mL (≈ 1020 µM). Further, the MIC in assay [6] is 250 µg/mL (≈ 510 µM). For the same molecule, the half-inhibitory concentration (IC50) in assay [7] was 78.2 µM.
As for `Cc1ccc(-c2cc(-c3nc4ccccc4[nH]3)nc(N3C(=O)C(Cl)C3c3ccccc3)c2C#N)cc1` (stereo unspecified), the MIC in assay [1] stood at 250 µg/mL (≈ 510 µM); in assay [2] it was 500 µg/mL (≈ 1020 µM); in assay [3], 500 µg/mL (≈ 1020 µM); in assay [4], 500 µg/mL (≈ 1020 µM); in assay [8], 100 µg/mL (≈ 204 µM); in assay [5], 500 µg/mL (≈ 1020 µM). Moreover, in assay [6], the MIC stood at 500 µg/mL (≈ 1020 µM). Further, the IC50 in assay [7] worked out at 74.5 µM.
As for `N#Cc1c(-c2ccc(Cl)cc2)cc(-c2nc3ccccc3[nH]2)nc1N`, the MIC in assay [1], in assay [3] and in assay [6] was no less than 1000 µg/mL in each case.
With `N#Cc1c(-c2ccc(Cl)cc2)cc(-c2nc3ccccc3[nH]2)nc1/N=C/c1ccccc1`, the minimum inhibitory concentration (MIC) in assay [3] and in assay [6] was 1000 µg/mL (≈ 2300 µM) each time.
As to `N#Cc1c(-c2ccc([N+](=O)[O-])cc2)cc(-c2nc3ccccc3[nH]2)nc1/N=C/c1ccccc1`, the MIC in assay [3] and in assay [6] was 1000 µg/mL (≈ 2250 µM) throughout.
For `N#Cc1c(-c2ccccc2Cl)cc(-c2nc3ccccc3[nH]2)nc1/N=C/c1ccccc1`, the minimum inhibitory concentration (MIC) in assay [3] and in assay [6] was 1000 µg/mL (≈ 2300 µM) throughout.

(Values after ChEMBL document CHEMBL2429780, “Synthesis, antimicrobial and cytotoxic activity of 2-azetidinone derivatives of pyridyl benzimidazoles” (Med Chem Res, 2013).)
